Measured values as given in US9302999B2, “Substituted triazoles as herbicides” (E. I. DU PONT DE NEMOURS AND COMPANY, priority 2012, dated 2016).

Key:
Type in all cases: in vivo
[1] = system: barley (winter barley, Hordeum vulgare); test: Test C postemergence: barley
From the text: (§1) At the same time, plants selected from these crop and weed species and also barley (winter barley, Hordeum vulgare), canarygrass (Phalaris minor), chickweed (common chickweed, Stellaria media) windgrass (Apera spica-venti) and deadnettle (henbit deadnettle, Lamium amplexicaule) were planted in pots containing Redi-Earth® planting medium (Scotts Company, 14111 Scottslawn Road, Marysville, Ohio 43041) comprising spaghnum peat moss, vermiculite, wetting agent and starter nutrients and treated with postemergence applications of test chemicals formulated in the same manner. Plants ranged in height from 2 to 18 cm (1- to 4-leaf stage) for postemergence treatments.
(§2) Treated plants and controls were maintained in a greenhouse for 13 to 15 days, after which time all species were compared to controls and visually evaluated. Plant response ratings, summarized in Table C, are based on a scale of 0 to 100 where 0 is no effect and 100 is complete control. A dash (-) response means no test result.

[2] = system: deadnettle (henbit deadnettle, Lamium amplexicaule); test: Test C postemergence: deadnettle
From the text: as §1, §2

[3] = system: woolly cupgrass (Eriochloa villosa); test: Test C pre-/postemergence: woolly cupgrass
From the text: (§3) Seeds of plant species selected from blackgrass (Alopecurus myosuroides), bromegrass, downy (downy bromegrass, Bromus tectorum), foxtail, green (green foxtail, Setaria viridis), ryegrass, Italian (Italian ryegrass, Lolium multiflorum), winter wheat (Triticum aestivum), wild oat (Avena fatua), galium (catchweed bedstraw, Galium aparine), bermudagrass (Cynodon dactylon), surinam grass (Brachiaria decumbens), cocklebur (common cocklebur, Xanthium strumarium), corn (Zea mays), large crabgrass (Digitaria sanguinalis), woolly cupgrass (Eriochloa villosa), foxtail, giant (giant foxtail, Setaria faberii), goosegrass (Eleusine indica), johnsongrass (Sorghum halepense), kochia (Kochia scoparia), lambsquarters (Chenopodium album), morningglory (Ipomoea coccinea), nightshade (eastern black nightshade, Solanum ptycanthum), nutsedge, yellow (yellow nutsedge, Cyperus esculentus), pigweed (Amaranthus retroflexus), ragweed (common ragweed, Ambrosia elation), soybean (Glycine max), common (oilseed) sunflower (Helianthus annuus), Russian thistle (Salsola kali) and velvetleaf (Abutilon theophrasti) were planted into a blend of loam soil and sand and treated preemergence with test chemicals formulated in a non-phytotoxic solvent mixture which included a surfactant.
as §1, §2

[4] = system: cocklebur (common cocklebur, Xanthium strumarium); test: Test C pre-/postemergence: cocklebur
From the text: as §3, §1, §2

[5] = system: windgrass (Apera spica-venti); test: Test C postemergence: windgrass
From the text: as §1, §2

[6] = system: goosegrass (Eleusine indica); test: Test C pre-/postemergence: goosegrass
From the text: as §3, §1, §2

[7] = system: foxtail, green (green foxtail, Setaria viridis); test: Test C pre-/postemergence: foxtail, green
From the text: as §3, §1, §2

[8] = system: nightshade (eastern black nightshade, Solanum ptycanthum); test: Test C pre-/postemergence: nightshade; details: Preemergence
From the text: as §3, §1, §2

[9] = system: bromegrass, downy (downy bromegrass, Bromus tectorum); test: Test C pre-/postemergence: bromegrass, downy
From the text: as §3, §1, §2

[10] = system: canarygrass (Phalaris minor); test: Test C postemergence: canarygrass
From the text: as §1, §2

[11] = 31 g ai/ha, scale 0 to 100 (0 no effect, 100 complete control)
[12] = 62 g ai/ha, scale 0 to 100 (0 no effect, 100 complete control)
[13] = 125 g ai/ha, scale 0 to 100, 0 no effect, 100 complete control
[14] = Postemergence, 31 g ai/ha, scale 0 to 100 (0 no effect, 100 complete control)
[15] = Postemergence, 62 g ai/ha, scale 0 to 100 (0 no effect, 100 complete control)
[16] = Postemergence, 125 g ai/ha, scale 0 to 100, 0 no effect, 100 complete control
[17] = Postemergence, 250 g ai/ha, scale 0 to 100
[18] = Preemergence, 31 g ai/ha, scale of 0 to 100, 0 is no effect, 100 is complete control
[19] = Preemergence, 62 g ai/ha, scale of 0 to 100, 0 is no effect, 100 is complete control
[20] = Preemergence, 125 g ai/ha, scale 0 to 100, 0 no effect, 100 complete control
[21] = Preemergence, 250 g ai/ha, scale 0 to 100, 0 no effect, 100 complete control
[22] = 62 g ai/ha, scale of 0 to 100, 0 is no effect, 100 is complete control
[23] = 250 g ai/ha, scale 0 to 100, 0 no effect, 100 complete control

FC(F)(F)COc1nn(-c2ccc(C(F)(F)F)cc2)nc1Cc1ccnc(C(F)(F)F)c1 [Compound 14, 4-[[5-(2,2,2-trifluoroethoxy)-2-[4-(trifluoromethyl)phenyl]-2H-1,2,3-triazol-4-yl]methyl]-2-(trifluoromethyl)pyridine]
Plant response rating, Barley [1, 11]: 30 | Plant response rating, Barley [1, 12]: 35 | Plant response rating, Barley [1, 13]: 50 | Plant response rating, Barley ([1]; 250 g ai/ha, scale 0 to 100): 50 | Plant response rating, Deadnettle [2, 11]: 98 | Plant response rating, Deadnettle [2, 12]: 98 | Plant response rating, Deadnettle [2, 13]: 100 | Plant response rating, Deadnettle ([2]; 250 g ai/ha, scale 0 to 100): 100 | Plant response rating, Cupgrass, Woolly [3, 14]: 5 | Plant response rating, Cupgrass, Woolly [3, 15]: 5 | Plant response rating, Cupgrass, Woolly [3, 16]: 35 | Plant response rating, Cupgrass, Woolly [3, 17]: 65 | Plant response rating, Cupgrass, Woolly [3, 18]: 5 | Plant response rating, Cupgrass, Woolly [3, 19]: 75 | Plant response rating, Cupgrass, Woolly [3, 20]: 75 | Plant response rating, Cupgrass, Woolly [3, 21]: 80 | Plant response rating, Cocklebur [4, 14]: 5 | Plant response rating, Cocklebur [4, 15]: 5 | Plant response rating, Cocklebur [4, 16]: 45 | Plant response rating, Cocklebur [4, 17]: 75 | Plant response rating, Cocklebur [4, 18]: 0 | Plant response rating, Cocklebur [4, 20]: 20 | Plant response rating, Cocklebur [4, 21]: 45 | Plant response rating, Windgrass [5, 11]: 70 | Plant response rating, Windgrass [5, 12]: 90 | Plant response rating, Windgrass [5, 13]: 95 | Plant response rating, Windgrass ([5]; 250 g ai/ha, scale 0 to 100): 95 | Plant response rating, Goosegrass [6, 14]: 5 | Plant response rating, Goosegrass [6, 15]: 5 | Plant response rating, Goosegrass [6, 16]: 60 | Plant response rating, Goosegrass [6, 17]: 75 | Plant response rating, Goosegrass [6, 18]: 98 | Plant response rating, Goosegrass [6, 19]: 100 | Plant response rating, Goosegrass [6, 20]: 100 | Plant response rating, Goosegrass [6, 21]: 100 | Plant response rating, Foxtail, Green [7, 14]: 70 | Plant response rating, Foxtail, Green [7, 16]: 90 | Plant response rating, Foxtail, Green [7, 17]: 90 | Plant response rating, Foxtail, Green [7, 18]: 80 | Plant response rating, Foxtail, Green [7, 19]: 100 | Plant response rating, Foxtail, Green [7, 20]: 100 | Plant response rating, Foxtail, Green [7, 21]: 100 | Plant response rating, Nightshade ([8]; 31 g ai/ha, scale of 0 to 100, 0 is no effect, 100 is complete control): 55 | Plant response rating, Nightshade [8, 22]: 80 | Plant response rating, Nightshade [8, 13]: 95 | Plant response rating, Nightshade [8, 23]: 98 | Plant response rating, Bromegrass, Downy [9, 14]: 30 | Plant response rating, Bromegrass, Downy [9, 15]: 40 | Plant response rating, Bromegrass, Downy [9, 16]: 40 | Plant response rating, Bromegrass, Downy [9, 17]: 45 | Plant response rating, Bromegrass, Downy [9, 18]: 30 | Plant response rating, Bromegrass, Downy ([9]; Preemergence, 62 g ai/ha, scale 0 to 100, 0 no effect, 100 complete control): 35 | Plant response rating, Bromegrass, Downy [9, 20]: 60 | Plant response rating, Bromegrass, Downy [9, 21]: 98 | Plant response rating, Canarygrass [10, 11]: 55 | Plant response rating, Canarygrass [10, 12]: 80 | Plant response rating, Canarygrass [10, 13]: 85 | Plant response rating, Canarygrass ([10]; 250 g ai/ha, scale 0 to 100): 85

FC(F)(F)c1ccc(-n2nc(Cl)c(Cc3ccnc(C(F)(F)F)c3)n2)cc1 [Compound 28]
Plant response rating, Barley [1, 11]: 10 | Plant response rating, Barley [1, 12]: 15 | Plant response rating, Barley [1, 13]: 20 | Plant response rating, Barley ([1]; 250 g ai/ha, scale 0 to 100): 35 | Plant response rating, Deadnettle [2, 11]: 40 | Plant response rating, Deadnettle [2, 12]: 80 | Plant response rating, Deadnettle [2, 13]: 90 | Plant response rating, Deadnettle ([2]; 250 g ai/ha, scale 0 to 100): 100 | Plant response rating, Cupgrass, Woolly [3, 14]: 20 | Plant response rating, Cupgrass, Woolly [3, 15]: 30 | Plant response rating, Cupgrass, Woolly [3, 16]: 35 | Plant response rating, Cupgrass, Woolly [3, 17]: 40 | Plant response rating, Cocklebur [4, 14]: 10 | Plant response rating, Cocklebur [4, 15]: 15 | Plant response rating, Cocklebur [4, 16]: 20 | Plant response rating, Cocklebur [4, 17]: 25 | Plant response rating, Windgrass [5, 11]: 30 | Plant response rating, Windgrass [5, 12]: 45 | Plant response rating, Windgrass [5, 13]: 50 | Plant response rating, Windgrass ([5]; 250 g ai/ha, scale 0 to 100): 50 | Plant response rating, Goosegrass [6, 14]: 20 | Plant response rating, Goosegrass [6, 15]: 20 | Plant response rating, Goosegrass [6, 16]: 25 | Plant response rating, Goosegrass [6, 17]: 45 | Plant response rating, Foxtail, Green [7, 14]: 30 | Plant response rating, Foxtail, Green [7, 15]: 70 | Plant response rating, Foxtail, Green [7, 16]: 70 | Plant response rating, Foxtail, Green [7, 17]: 85 | Plant response rating, Bromegrass, Downy [9, 14]: 5 | Plant response rating, Bromegrass, Downy [9, 15]: 25 | Plant response rating, Bromegrass, Downy [9, 16]: 35 | Plant response rating, Bromegrass, Downy [9, 17]: 35 | Plant response rating, Canarygrass [10, 11]: 30 | Plant response rating, Canarygrass [10, 12]: 50 | Plant response rating, Canarygrass [10, 13]: 60 | Plant response rating, Canarygrass ([10]; 250 g ai/ha, scale 0 to 100): 90

Cc1nn(-c2ccnc(Cl)c2)nc1Cc1ccnc(C(F)(F)F)c1 [Compound 141]
Plant response rating, Barley [1, 11]: 5 | Plant response rating, Barley [1, 12]: 10 | Plant response rating, Barley [1, 13]: 15 | Plant response rating, Barley ([1]; 250 g ai/ha, scale 0 to 100): 30 | Plant response rating, Deadnettle [2, 11]: 100 | Plant response rating, Deadnettle [2, 12]: 100 | Plant response rating, Deadnettle [2, 13]: 100 | Plant response rating, Deadnettle ([2]; 250 g ai/ha, scale 0 to 100): 100 | Plant response rating, Cupgrass, Woolly [3, 14]: 15 | Plant response rating, Cupgrass, Woolly [3, 15]: 20 | Plant response rating, Cupgrass, Woolly [3, 16]: 30 | Plant response rating, Cupgrass, Woolly [3, 17]: 45 | Plant response rating, Cocklebur [4, 14]: 5 | Plant response rating, Windgrass [5, 11]: 50 | Plant response rating, Windgrass [5, 12]: 50 | Plant response rating, Windgrass [5, 13]: 55 | Plant response rating, Windgrass ([5]; 250 g ai/ha, scale 0 to 100): 60 | Plant response rating, Goosegrass [6, 14]: 35 | Plant response rating, Goosegrass [6, 15]: 40 | Plant response rating, Goosegrass [6, 16]: 50 | Plant response rating, Goosegrass [6, 17]: 60 | Plant response rating, Foxtail, Green [7, 14]: 100 | Plant response rating, Foxtail, Green [7, 15]: 100 | Plant response rating, Foxtail, Green [7, 16]: 100 | Plant response rating, Foxtail, Green [7, 17]: 100 | Plant response rating, Bromegrass, Downy [9, 14]: 25 | Plant response rating, Bromegrass, Downy [9, 15]: 30 | Plant response rating, Bromegrass, Downy [9, 16]: 30 | Plant response rating, Bromegrass, Downy [9, 17]: 45 | Plant response rating, Canarygrass [10, 11]: 20 | Plant response rating, Canarygrass [10, 12]: 25 | Plant response rating, Canarygrass [10, 13]: 50 | Plant response rating, Canarygrass ([10]; 250 g ai/ha, scale 0 to 100): 80

Cc1nn(-c2ccc(F)cc2F)nc1Oc1ccnc(C(F)(F)F)c1 [Compound 146]
Plant response rating, Cupgrass, Woolly [3, 18]: 40 | Plant response rating, Cupgrass, Woolly [3, 19]: 45 | Plant response rating, Cupgrass, Woolly [3, 20]: 90 | Plant response rating, Cupgrass, Woolly [3, 21]: 100 | Plant response rating, Cocklebur [4, 18]: 0 | Plant response rating, Cocklebur [4, 19]: 0 | Plant response rating, Cocklebur [4, 20]: 0 | Plant response rating, Cocklebur [4, 21]: 0 | Plant response rating, Goosegrass [6, 18]: 70 | Plant response rating, Goosegrass [6, 19]: 85 | Plant response rating, Goosegrass [6, 20]: 100 | Plant response rating, Goosegrass [6, 21]: 100 | Plant response rating, Foxtail, Green [7, 18]: 90 | Plant response rating, Foxtail, Green [7, 19]: 90 | Plant response rating, Foxtail, Green [7, 20]: 90 | Plant response rating, Foxtail, Green [7, 21]: 90 | Plant response rating, Nightshade [8, 22]: 35 | Plant response rating, Nightshade [8, 13]: 90 | Plant response rating, Nightshade [8, 23]: 98 | Plant response rating, Bromegrass, Downy [9, 18]: 0 | Plant response rating, Bromegrass, Downy [9, 19]: 0 | Plant response rating, Bromegrass, Downy [9, 20]: 15 | Plant response rating, Bromegrass, Downy [9, 21]: 80
